Laboratory results as given in BindingDB's records for doi:10.1021/jm0701019 (Abbott Laboratories, 2007).

Tests used:
[1] = target: cAMP-dependent protein kinase catalytic subunit alpha (Bos taurus, UniProt P00517); test: PKA/PKC Kinase Assay
Protocol: The kinase assay uses purified recombinant enzyme and a biotinylated peptide as substrate. The biotinylated peptides were immobilized on streptavidin-coated FLASH plates. After reaction, the 33P-phosphopeptide captured on the FLASH plates was measured with a TopCount Packard Instruments gamma counter (Packard Instruments, Boston, MA). IC50s were calculated using the sigmoidal curve fit with the Assay Explorer software (MDL, Los Angeles, CA).

[2] = target: T1, RAC-alpha serine/threonine-protein kinase [139-480,S378A,S381A,T450D,S473D] (Homo sapiens, UniProt P31749, S378A/S381A/S473D/T450D); test: Akt Kinase Assay
T1 construct: 139-480
T1 sequence (P31749 139-480 S378A/S381A/T450D/S473D): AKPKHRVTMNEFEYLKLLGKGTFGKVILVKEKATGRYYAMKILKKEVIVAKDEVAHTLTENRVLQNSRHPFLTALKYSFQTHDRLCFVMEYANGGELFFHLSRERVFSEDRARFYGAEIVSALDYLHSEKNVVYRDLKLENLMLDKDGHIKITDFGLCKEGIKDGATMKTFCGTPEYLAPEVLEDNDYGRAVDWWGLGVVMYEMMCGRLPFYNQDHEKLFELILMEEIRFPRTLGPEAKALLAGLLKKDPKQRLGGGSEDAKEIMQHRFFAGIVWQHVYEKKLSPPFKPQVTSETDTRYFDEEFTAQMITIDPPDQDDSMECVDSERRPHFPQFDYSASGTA
Protocol: The kinase assay uses His-Akt1 and a biotinylated peptide as substrate. The biotinylated peptides were immobilized on streptavidin-coated FLASH plates. After reaction, the 33P-phosphopeptide captured on the FLASH plates was measured with a TopCount Packard Instruments […] (Packard Instruments, Boston, MA).

IC50 [2] [nM] | SMILES | also measured
18 | Cc1n[nH]c2ccc(-c3cncc(OC[C@@H](N)Cc4ccc(C(F)(F)F)cc4)c3)cc12 [(2S)-1-{[5-(3-methyl-1H-indazol-5-yl)pyridin-3-yl]oxy}-3-[4-(trifluoromethyl)phenyl]propan-2-amine] | –
1.8 | Cc1n[nH]c2ccc(-c3cncc(OC[C@@H](N)Cc4ccc(Cl)c(Cl)c4)c3)cc12 [(2S)-1-(3,4-dichlorophenyl)-3-{[5-(3-methyl-1H-indazol-5-yl)pyridin-3-yl]oxy}propan-2-amine] | –
5.9 | Cc1n[nH]c2ccc(-c3cncc(OC[C@@H](N)Cc4cccc(Cl)c4)c3)cc12 [(2S)-1-(3-chlorophenyl)-3-{[5-(3-methyl-1H-indazol-5-yl)pyridin-3-yl]oxy}propan-2-amine] | –
49 | Cc1n[nH]c2ccc(-c3cncc(OC[C@@H](N)Cc4c(F)cc(F)cc4Br)c3)cc12 [(2S)-1-(2-bromo-4,6-difluorophenyl)-3-{[5-(3-methyl-1H-indazol-5-yl)pyridin-3-yl]oxy}propan-2-amine] | –
751 | Cc1n[nH]c2ccc(-c3cncc(OC[C@@H](N)Cc4cccc(OCCN5CCOCC5)c4)c3)cc12 [4-(2-{3-[(2S)-2-amino-3-{[5-(3-methyl-1H-indazol-5-yl)pyridin-3-yl]oxy}propyl]phenoxy}ethyl)morpholine] | –

The remaining lines, values behind:

SMILES | IC50 [2] [nM] | also measured
Cc1n[nH]c2ccc(-c3cncc(OC[C@@H](N)Cc4cccc(OCC5CCCCC5)c4)c3)cc12 [5-{5-[(2S)-2-amino-3-[3-(cyclohexylmethoxy)phenyl]propoxy]pyridin-3-yl}-3-methyl-1H-indazole] | – | IC50 [1]: > 3000 nM
Cc1n[nH]c2ccc(-c3cncc(OC[C@@H](N)Cc4ccccc4)c3)cc12 [Biochemistry 469551 Compound 11] | – | IC50 ([1]; pH 7.5, 22 °C): 16 nM
Cc1n[nH]c2ccc(-c3cncc(OC[C@@H](N)Cc4c[nH]c5ccccc45)c3)cc12 [5-{5-[(2S)-2-amino-3-(1H-indol-3-yl)propoxy]pyridin-3-yl}-3-methyl-1H-indazole] | – | IC50 ([2]; pH 7.5, 22 °C): 0.16 nM; IC50 ([1]; pH 7.5, 22 °C): 6 nM
Cc1n[nH]c2ccc(-c3cncc(OC[C@@H](N)Cc4cccc(-c5ccccc5)c4)c3)cc12 [5-{5-[(2S)-2-amino-3-(3-phenylphenyl)propoxy]pyridin-3-yl}-3-methyl-1H-indazole] | 126 | –
Cc1cc(C[C@H](N)COc2cncc(-c3ccc4[nH]nc(C)c4c3)c2)ccc1Br [5-{5-[(2S)-2-amino-3-(4-bromo-3-methylphenyl)propoxy]pyridin-3-yl}-3-methyl-1H-indazole] | 2.5 | –
Cc1n[nH]c2ccc(-c3cncc(OC[C@@H](N)Cc4ccc(Br)cc4)c3)cc12 [5-{5-[(2S)-2-amino-3-(4-bromophenyl)propoxy]pyridin-3-yl}-3-methyl-1H-indazole] | 5 | IC50 [1]: 15 nM
Cc1n[nH]c2ccc(-c3cncc(OC[C@@H](N)Cc4cc(F)cc(C(F)(F)F)c4)c3)cc12 [(2S)-1-[5-fluoro-3-(trifluoromethyl)phenyl]-3-{[5-(3-methyl-1H-indazol-5-yl)pyridin-3-yl]oxy}propan-2-amine] | 13.3 | –
Cc1n[nH]c2ccc(-c3cncc(OC[C@@H](N)Cc4cc(C(F)(F)F)cc(C(F)(F)F)c4)c3)cc12 [5-{5-[(2S)-2-amino-3-[3,5-bis(trifluoromethyl)phenyl]propoxy]pyridin-3-yl}-3-methyl-1H-indazole] | 57 | –
Cc1n[nH]c2ccc(-c3cncc(OC[C@@H](N)Cc4cccc5c4OC(F)(F)O5)c3)cc12 [5-{5-[(2S)-2-amino-3-(2,2-difluoro-2H-1,3-benzodioxol-4-yl)propoxy]pyridin-3-yl}-3-methyl-1H-indazole] | 14 | –
N[C@H](COc1cncc(-c2ccc3c(c2)/C(=C\c2ccco2)C(=O)N3)c1)Cc1ccccc1 [(3E)-5-{5-[(2S)-2-amino-3-phenylpropoxy]pyridin-3-yl}-3-(furan-2-ylmethylidene)-2,3-dihydro-1H-indol-2-one] | – | IC50 ([2]; pH 7.5, 22 °C): 1.4 nM
Cc1n[nH]c2cnc(-c3cncc(OC[C@@H](N)Cc4cccc(F)c4F)c3)cc12 [(2S)-1-(2,3-difluorophenyl)-3-{[5-(3-methyl-1H-pyrazolo[3,4-c]pyridin-5-yl)pyridin-3-yl]oxy}propan-2-amine] | 5 | –
Cc1n[nH]c2ccc(-c3cncc(OC[C@@H](N)Cc4c(F)cc(F)cc4F)c3)cc12 [(2S)-1-(2,4,6-trifluorophenyl)-3-{[5-(3-methyl-1H-indazol-5-yl)pyridin-3-yl]oxy}propan-2-amine] | – | IC50 ([2]; pH 7.5, 22 °C): 31 nM
Cc1n[nH]c2ccc(-c3cncc(OC[C@@H](N)Cc4ccc(Cl)cc4)c3)cc12 [(2S)-1-(4-chlorophenyl)-3-{[5-(3-methyl-1H-indazol-5-yl)pyridin-3-yl]oxy}propan-2-amine] | 11 | –
